Where a name gives a salt, the structure may show the parent alone. Read-outs that look alike come from different tables or passages of the source.
Target: SARS-CoV-2 3CLpro (Severe acute respiratory syndrome coronavirus 2, UniProt P0DTD1)
Assay: biochemical
Type: biochemical
Set-up: Replicate_1 / Replicate_2 / mean / mean (LOPAC_screen_w_protease): unit not given here
Conditions: for inhibition at 5 µM: 4 h; for mean (LOPAC screen with protease) / Replicate_1 (LOPAC screen with protease) / Replicate_2 (LOPAC screen with protease): primary screen at 5 µM
[1] = sheet LOPAC_screen_w_protease, primary screen with protease, mean of two replicates
[2] = sheet LOPAC_screen_w_protease, primary screen with protease, replicate 1
[3] = sheet LOPAC_screen_w_protease, primary screen with protease, replicate 2
[4] = sheet LOPAC_screen_w_protease, LOPAC1280 at 5 µM, mean of two replicates
[5] = sheet LOPAC_screen_w_protease, LOPAC1280 at 5 µM, replicate 1
[6] = sheet LOPAC_screen_w_protease, LOPAC1280 at 5 µM, replicate 2
[7] = sheet LOPAC_screen_w_protease, LOPAC1280 at 5 µM, mean of two replicates, read-out: mean
[8] = sheet LOPAC_screen_w_protease, LOPAC1280 at 5 µM, replicate 1, read-out: Replicate_1
[9] = sheet LOPAC_screen_w_protease, LOPAC1280 at 5 µM, replicate 2, read-out: Replicate_2
[10] = sheet LOPAC_screen_w_protease, primary screen with protease, mean of two replicates, read-out: mean
[11] = sheet LOPAC_screen_w_protease, primary screen with protease, replicate 1, read-out: Replicate_1
[12] = sheet LOPAC_screen_w_protease, primary screen with protease, replicate 2, read-out: Replicate_2
[13] = LOPAC1280 primary screen with protease, 5 µM compound, mean of the two replicates
[14] = LOPAC1280 primary screen with protease, 5 µM compound, replicate 1
[15] = LOPAC1280 primary screen with protease, 5 µM compound, replicate 2
[16] = sheet LOPAC_screen_w_protease, LOPAC1280 primary screen at 5 µM, with protease, mean of the two replicates
[17] = sheet LOPAC_screen_w_protease, LOPAC1280 primary screen at 5 µM, with protease, replicate 1
[18] = sheet LOPAC_screen_w_protease, LOPAC1280 primary screen at 5 µM, with protease, replicate 2
[19] = sheet LOPAC_screen_w_protease, primary screen of LOPAC1280 at 5 µM with protease, mean of the two replicates, read-out: mean
[20] = sheet LOPAC_screen_w_protease, primary screen of LOPAC1280 at 5 µM with protease, replicate 1, read-out: Replicate_1
[21] = sheet LOPAC_screen_w_protease, primary screen of LOPAC1280 at 5 µM with protease, replicate 2, read-out: Replicate_2
[22] = sheet LOPAC_screen_w_protease, LOPAC1280 primary screen with protease, 5 µM compound, mean of the two replicates
[23] = sheet LOPAC_screen_w_protease, LOPAC1280 primary screen with protease, 5 µM compound, replicate 1
[24] = sheet LOPAC_screen_w_protease, LOPAC1280 primary screen with protease, 5 µM compound, replicate 2
[25] = sheet LOPAC_screen_w_protease, mean of two replicates
[26] = sheet LOPAC_screen_w_protease, replicate 1
[27] = sheet LOPAC_screen_w_protease, replicate 2

## O=[N+]([O-])c1cc(O)c(O)c([N+](=O)[O-])c1 [3,5-Dinitrocatechol]
[1]
  mean: 2.373
[2]
  Replicate_1: 3.489
[3]
  Replicate_2: 1.257

## COc1cc2nc(N3CCN(C(=O)OCc4ccccc4)C(C(=O)NC(C)(C)C)C3)nc(N)c2cc1OC [L-765,314]
[4]
  mean: 1.212
[5]
  Replicate_1: 3.331
[6]
  Replicate_2: -0.9073

## OCCN1CCN(CCCN2c3ccccc3Sc3ccc(Cl)cc32)CC1 [Perphenazine]
[7]
  inhibition at 5 µM: 1.14%
[8]
  inhibition at 5 µM: 0.377%
[9]
  inhibition at 5 µM: 1.91%

## NC(N)=NOCC[C@H](N)C(=O)O.O=S(=O)(O)O [L-Canavanine sulfate]
[4]
  mean: 1.293
[5]
  Replicate_1: 1.623
[6]
  Replicate_2: 0.9625

## Cc1cn(C2CC(N=[N+]=[N-])C(CO)O2)c(=O)[nH]c1=O (stereo not drawn) [3'-Azido-3'-deoxythymidine]
[7]
  inhibition at 5 µM: 1.04%
[8]
  inhibition at 5 µM: 1.75%
[9]
  inhibition at 5 µM: 0.327%

## NC(=Nc1ccccc1)NC(=O)c1nc(Cl)c(N)nc1N [Phenamil methanesulfonate]
[10]
  inhibition at 5 µM: 2.43%
[11]
  inhibition at 5 µM: 2.05%
[12]
  inhibition at 5 µM: 2.81%

## NC(Cc1ccc(Cl)cc1)C(=O)O (racemic) [(±)-p-Chlorophenylalanine]
Sheet LOPAC_screen_w_protease, primary screen of LOPAC1280 at 5 µM with protease, mean of the two replicates
  mean: 3.154
Sheet LOPAC_screen_w_protease, primary screen of LOPAC1280 at 5 µM with protease, replicate 1
  Replicate_1: 1.596
Sheet LOPAC_screen_w_protease, primary screen of LOPAC1280 at 5 µM with protease, replicate 2
  Replicate_2: 4.711

## CN(C)CCOC(=O)COc1ccc(Cl)cc1 [Centrophenoxine hydrochloride]
[7]
  inhibition at 5 µM: 1.27%
[8]
  inhibition at 5 µM: 1.82%
[9]
  inhibition at 5 µM: 0.724%

## CN(CCOc1ccc(C[C@H](Nc2ccccc2C(=O)c2ccccc2)C(=O)O)cc1)c1ccccn1 [GW1929]
[4]
  mean: 1.294
[5]
  Replicate_1: 1.2073
[6]
  Replicate_2: 1.38

## CC1CCN(CC[C@H]2CCCN2S(=O)(=O)c2cccc(O)c2)CC1.Cl [SB 269970 hydrochloride]
[13]
  mean (LOPAC_screen_w_protease): 2.103
[14]
  Replicate_1 (LOPAC_screen_w_protease): 1.356
[15]
  Replicate_2 (LOPAC_screen_w_protease): 2.851

## CN1CCN(CCCN2c3ccccc3Sc3ccc(Cl)cc32)CC1 [Prochlorperazine dimaleate]
[10]
  inhibition at 5 µM: 2.43%
[11]
  inhibition at 5 µM: 4.42%
[12]
  inhibition at 5 µM: 0.439%

## CCn1cnc2c(Nc3cccc(Cl)c3)nc(N[C@@H]3CCCC[C@@H]3N)nc21.Cl [CGP-74514A hydrochloride]
[16]
  mean: 0.7839
[17]
  Replicate_1: 2.043
[18]
  Replicate_2: -0.4753

## CCCCc1ccc(C(=O)O)nc1 [Fusaric acid]
[10]
  inhibition at 5 µM: 2.51%
[11]
  inhibition at 5 µM: 3.23%
[12]
  inhibition at 5 µM: 1.8%

## CNC(=O)[C@H]1O[C@@H](n2cnc3c(NCc4cccc(I)c4)nc(Cl)nc32)[C@H](O)[C@@H]1O [Chloro-IB-MECA]
[19]
  inhibition at 5 µM: 3.22%
[20]
  inhibition at 5 µM: 4.25%
[21]
  inhibition at 5 µM: 2.19%

## O=[N+]([O-])c1ccc(CSc2ncnc3c2ncn3[C@@H]2O[C@H](CO)[C@@H](O)[C@H]2O)cc1 [S-(4-Nitrobenzyl)-6-thioinosine]
[22]
  mean: 4.84
[23]
  Replicate_1: 5.452
[24]
  Replicate_2: 4.228

## Cl.OC1CCCCC1N1CCC(c2ccccc2)CC1 (racemic) [(±)-Vesamicol hydrochloride]
[16]
  mean: 0.573
[17]
  Replicate_1: 1.205
[18]
  Replicate_2: -0.05902

## COC(=O)C(N)Cc1ccc(Cl)cc1.Cl (racemic)
[16]
  mean: 0.6507
[17]
  Replicate_1: 2.428
[18]
  Replicate_2: -1.1263

## Cl.N[C@@H](CCl)C(=O)O [beta-Chloro-L-alanine hydrochloride]
[1]
  mean: 2.368
[2]
  Replicate_1: 2.376
[3]
  Replicate_2: 2.361

## Cl.N=C(N)NC(=N)Nc1cccc(Cl)c1
[13]
  mean (LOPAC_screen_w_protease): 1.751
[14]
  Replicate_1 (LOPAC_screen_w_protease): 2.329
[15]
  Replicate_2 (LOPAC_screen_w_protease): 1.173

## Cn1cc(C(=O)OCC2CCN(CCNS(C)(=O)=O)CC2)c2ccccc21 [GR 113808]
[4]
  mean: 1.128
[5]
  Replicate_1: 1.417
[6]
  Replicate_2: 0.838

## O=C(O)/C=C\C(=O)O.O=[N+]([O-])c1ccc2nc(N3CCNCC3)ccc2c1 [Quipazine, 6-nitro-, maleate]
[16]
  mean: 0.7082
[17]
  Replicate_1: 1.452
[18]
  Replicate_2: -0.03606

## O=C1Nc2ccc(I)cc2/C1=C/c1cc(Br)c(O)c(Br)c1 [GW5074]
[22]
  mean: 5.786
[23]
  Replicate_1: 6.4599
[24]
  Replicate_2: 5.112

## Cl.NC1(C(=O)O)CC1
[4]
  mean: 1.084
[5]
  Replicate_1: 2.432
[6]
  Replicate_2: -0.2629

## O=C(O)C1CCNCC1 [Isonipecotic acid]
LOPAC1280 primary screen with protease, 5 µM compound, replicate 1, read-out: Replicate_1 (LOPAC_screen_w_protease)
  inhibition at 5 µM: 4.55%
LOPAC1280 primary screen with protease, 5 µM compound, replicate 2, read-out: Replicate_2 (LOPAC_screen_w_protease)
  inhibition at 5 µM: -0.611%
[13]
  mean (LOPAC_screen_w_protease): 1.97

## Nc1nc(Cl)nc2c1ncn2[C@@H]1O[C@H](CO)[C@@H](O)[C@H]1O [2-Chloroadenosine]
LOPAC1280 primary screen with protease, 5 µM compound, mean of two replicates
  mean (LOPAC_screen_w_protease): 1.409
[14]
  Replicate_1 (LOPAC_screen_w_protease): 1.21
[15]
  Replicate_2 (LOPAC_screen_w_protease): 1.608

## O=[N+]([O-])c1cccc2c(Br)n[nH]c12 [3-Bromo-7-nitroindazole]
[13]
  mean (LOPAC_screen_w_protease): 1.829
[14]
  Replicate_1 (LOPAC_screen_w_protease): 2.045
[15]
  Replicate_2 (LOPAC_screen_w_protease): 1.613

## c1ccc2c(CC3=NCCN3)cccc2c1 [Naphazoline hydrochloride]
Sheet LOPAC_screen_w_protease, LOPAC1280 primary screen with protease, 5 µM compound, mean of the two replicates, read-out: mean
  inhibition at 5 µM: 4.49%
Sheet LOPAC_screen_w_protease, LOPAC1280 primary screen with protease, 5 µM compound, replicate 1, read-out: Replicate_1
  inhibition at 5 µM: 4.4%
Sheet LOPAC_screen_w_protease, LOPAC1280 primary screen with protease, 5 µM compound, replicate 2, read-out: Replicate_2
  inhibition at 5 µM: 4.59%

## MDL 26,630 trihydrochloride
[22]
  mean: 6.178
[23]
  Replicate_1: 5.659
[24]
  Replicate_2: 6.697

## NCCc1c[nH]cn1 [Histamine dihydrochloride]
read-out: Replicate_1
  inhibition at 5 µM: 3.24%
read-out: Replicate_2
  inhibition at 5 µM: -1.24%
read-out: mean
  inhibition at 5 µM: 1%

## CC1=C[C@@H]2c3cccc4[nH]cc(c34)C[C@H]2N(C)C1 [Agroclavine]
[19]
  inhibition at 5 µM: 3.47%
[20]
  inhibition at 5 µM: 3.6%
[21]
  inhibition at 5 µM: 3.34%

## CN(C)C(=O)N=NC(=O)N(C)C [N,N,N',N'-Tetramethylazodicarboxamide]
[25]
  mean (LOPAC screen with protease): 22.0405
[26]
  Replicate_1 (LOPAC screen with protease): 23.2519
[27]
  Replicate_2 (LOPAC screen with protease): 20.8292

## O=C(O)/C(=C/c1c(C(=O)O)[nH]c2cc(Cl)cc(Cl)c12)c1ccccc1 [MDL 105,519]
  Replicate_1: 2.708
  Replicate_2: 5.657
  mean: 4.183

## Cc1cnc(C(=O)NCCc2ccc(S(=O)(=O)NC(=O)NC3CCCCC3)cc2)cn1 [Glipizide]
read-out: Replicate_1 (LOPAC screen with protease)
  inhibition at 5 µM: 10.3%
read-out: Replicate_2 (LOPAC screen with protease)
  inhibition at 5 µM: 3.17%
read-out: mean (LOPAC screen with protease)
  inhibition at 5 µM: 6.73%

## C[N+]1(C)[C@@H]2CC[C@H]1C[C@@H](OC(=O)C(CO)c1ccccc1)C2 (stereo partly drawn) [Atropine methyl nitrate]
Sheet LOPAC_screen_w_protease, primary screen with protease, 5 µM, mean of two replicates, read-out: mean
  inhibition at 5 µM: -0.0687%
Sheet LOPAC_screen_w_protease, primary screen with protease, 5 µM, replicate 1, read-out: Replicate_1
  inhibition at 5 µM: 0.687%
Sheet LOPAC_screen_w_protease, primary screen with protease, 5 µM, replicate 2, read-out: Replicate_2
  inhibition at 5 µM: -0.825%

## Nc1c[n+](N2CCOCC2)no1.[Cl-] [3-Morpholinosydnonimine hydrochloride]
[25]
  mean (LOPAC screen with protease): 21.789
[26]
  Replicate_1 (LOPAC screen with protease): 21.9907
[27]
  Replicate_2 (LOPAC screen with protease): 21.5874

## COc1ccc2[nH]c(I)c(CCNC(C)=O)c2c1 [2-Iodomelatonin]
[22]
  mean: 5.613
[23]
  Replicate_1: 6.946
[24]
  Replicate_2: 4.28

## CC[N+](CC)(CC)CC [Tetraethylammonium chloride]
read-out: Replicate_1
  inhibition at 5 µM: 2.25%
read-out: Replicate_2
  inhibition at 5 µM: -1.51%
read-out: mean
  inhibition at 5 µM: 0.374%

## CCn1c(=O)[nH]c2cc(Cl)c(Cl)cc21 [DCEBIO]
[13]
  mean (LOPAC_screen_w_protease): 1.96
[14]
  Replicate_1 (LOPAC_screen_w_protease): 3.009
[15]
  Replicate_2 (LOPAC_screen_w_protease): 0.9113

— article PMC7587356, “High-Throughput Screening for Inhibitors of the SARS-CoV-2 Protease Using a FRET-Biosensor” (Molecules, 2020)
